Data taken from US6521620B1, “Bicyclic compounds capable of inhibiting tyrosine kinases of the epidermal growth factor receptor family” (Warner-Lambert Company, priority 1994, dated 2003).
Where two headings read alike, the source gives them in different places.

Experiments:
[1] = target: T1, Human EGF receptor tyrosine kinase (Homo sapiens, UniProt P00533); test: EGF receptor tyrosine kinase inhibition (phosphorylation of PLC-gamma 1 derived peptide); assay type: biochemical
T1 construct: isolated from A431 human epidermoid carcinoma cells which overexpress EGF receptor; endogenous in cells; host or cells: A431 human epidermoid carcinoma cells; purified from the lysate on wheat germ agglutinin sepharose
Description: Purification of Epidermal Growth Factor Receptor Tyrosine Kinase—Human EGF receptor tyrosine kinase was isolated from A431 human epidermoid carcinoma cells which overexpress EGF receptor by the following methods. Cells were grown in roller bottles in 50% Delbuco's Modified Eagle and 50% HAM F-12 nutrient media (Gibco) containing 10% fetal calf serum. Approximately 10^9 cells were lysed in two volumes of buffer containing 20 mM 2-(4N-[2-hydroxyethyl]piperazin-1-yl)ethanesulfonic acid (hepes), pH 7.4, 5 mM ethylene glycol bis(2-aminoethyl ether) N,N,N′,N′-tetraacetic acid, 1% Triton X-100, 10% glycerol, 0.1 mM sodium orthovanadate, 5 mM sodium fluoride, 4 mM pyrophosphate, 4 mM benzamide, 1 mM dithiothreitol, 80 μg/mL aprotinin, 40 μg/mL leupeptin and 1 mM phenylmethylsulfonyl fluoride. After centrifugation at 25,000×g for 10 minutes, the supernatant was equilibrated for 2 h at 4° C. with 10 mL of wheat germ agglutinin sepharose that was previously equilibrated with 50 mM Hepes, […], 0.1% Triton X-100 and 150 mM NaCl, pH 7.5, (equilibration buffer). Contaminating proteins were washed from the resin with 1 M NaCl in equilibration buffer, and the enzyme was eluted with 0.5 M N-acetyl-1-D-glucosamine in equilibration buffer, followed by 1 mM urea. The enzyme was eluted with 0.1 mg/ml EGF.
The reaction was terminated by the addition of 2 mL of […] phosphoric acid and passed through a 2.5 cm phosphocellulose filter disc to bind the peptide. The filter was washed five times with 75 mM phosphoric acid and placed in a vial along with 5 mL of scintillation fluid (Ready gel Beckman).

[2] = system: B104-1-1 - NIH-3T3 fibroblasts transfected by the neu oncogene; test: Growth inhibition assay (antiproliferative), B104-1-1; assay type: cell-based; details: Mus musculus; B104-1-1 cells
[3] = system: MDA-468 - Human breast carcinoma overexpressing the EGF receptor; test: cells; details: read-out: Antiproliferative IC50 (nM)
Description: To obtain conditioned medium, MDA-MB-231 cells were grown to confluency in an 850 cm^2 roller bottle and the medium-replaced with 50 ml of serum-free medium. After 3 days the conditioned medium was removed, frozen down in aliquots and used as a heregulin source to stimulate erbB-2, 3, 4.
Cells (2×10^4) were seeded in 24-well plates (1.7×1.6 cm, flat bottom) in two mls of medium with or without various concentrations of drug. Plates were incubated for 3 days at 37° in a humidified atmosphere containing 5% CO2 in air. Cell growth was determined by cell count with a Coulter Model AM electronic cell counter (Coulter Electronics, Inc., Hialeah, Fla.).

[4] = system: erbB-2, 3, 4; test: Inhibition of conditioned media-induced autophosphorylation in SK-BR-3 breast tumor cells; assay type: cell-based, human
Description: (§1) Cells were grown to 100% confluency in 100 mm Petrie dishes (Corning). After the cells were treated for 5 minutes with either EGF (epidermal growth factor), PDGF, or bFGF (basic fibroblast growth factor) (20 ng/ml) or 1 ml of conditioned media from MDA-MB-231 cells, the media was removed and the monolayer scraped into 1 ml of ice cold lysis buffer (50 mM Hepes, pH 7.5, 150 mM NaCl, 10% glycerol, 1% triton X-100, 1 mM EDTA, 1 mM EGTA, 10 mM sodium pyrophosphate, 30 mM p-nitrophenyl phosphate, 1 mM orthovanadate, 50 mM sodium fluoride, 1 mM phenylmethylsulfonylfluoride, 10 μg/ml of aprotinin, and 10 μg/ml of leupeptin). The lysate was transferred to a microfuge tube (small centrifuge that holds 1-2 ml plastic centrifuge tubes), allowed to sit on ice 15 minutes and centrifuged 5 minutes at 10,000×g. The supernatant was transferred to a clean microfuge tube and 5 μg of antibody was added to designated samples. The tubes were rotated for 2 hours at […] after which 25 μl of protein A sepharose was added and then rotation continued for at least 2 more hours. The protein A separose was washed 5 times with 50 mM Hepes, pH 7.5, 150 mM NaCl, 10% glycerol and 0.02% sodium azide. […] The extract were transferred to a microfuge tube and heated to 100° C. for 5 minutes. […] Proteins in the gel were electrophoretically transferred to nitrocellulose and the membrane was washed once in 10 mM Tris buffer, pH 7.2, 150 mM NaCl, 0.01% Azide (TNA) and blocked overnight in TNA containing 5% bovine serum albumin and 1% ovalbumin (blocking buffer). The membrane was blotted for 2 hours with the primary antibody (1 μg/ml in blocking buffer) and then washed 2 times sequentially in TNA, TNA containing 0.05% Tween-20 and 0.05% Nonidet P-40 (commercially available detergent) and TNA.

[5] = target: T2, EGF receptor (Homo sapiens, UniProt P00533); test: Inhibition of EGF-induced autophosphorylation in A431 epidermoid carcinoma cells; assay type: cell-based
T2 construct: EGF receptor autophosphorylation in A431 human epidermoid carcinoma; endogenous in cells; host or cells: A431 human epidermoid carcinoma cells (ATCC)
Description: as §1

[6] = system: SK-BR-3 - Human breast carcinoma overexpressing erbB-2 and erbB-3; test: Growth inhibition assay (antiproliferative), SK-BR-3; assay type: cell-based; details: SK-BR-3 cells
[7] = Table 1, values printed in μM, read-out: EGF Receptor Tyrosine Kinase Inhibition IC50
[8] = Table 1, values in nM, read-out: EGF Receptor Tyrosine Kinase Inhibition IC50
[9] = SK-BR-3 cells, read-out: SKBR-3 IC50
[10] = Table 1, values in pM, read-out: EGF Receptor Tyrosine Kinase Inhibition IC50
[11] = enzyme value repeated in the autophosphorylation table, read-out: EGFR IC50

T2 sequence (P00533 25-1210): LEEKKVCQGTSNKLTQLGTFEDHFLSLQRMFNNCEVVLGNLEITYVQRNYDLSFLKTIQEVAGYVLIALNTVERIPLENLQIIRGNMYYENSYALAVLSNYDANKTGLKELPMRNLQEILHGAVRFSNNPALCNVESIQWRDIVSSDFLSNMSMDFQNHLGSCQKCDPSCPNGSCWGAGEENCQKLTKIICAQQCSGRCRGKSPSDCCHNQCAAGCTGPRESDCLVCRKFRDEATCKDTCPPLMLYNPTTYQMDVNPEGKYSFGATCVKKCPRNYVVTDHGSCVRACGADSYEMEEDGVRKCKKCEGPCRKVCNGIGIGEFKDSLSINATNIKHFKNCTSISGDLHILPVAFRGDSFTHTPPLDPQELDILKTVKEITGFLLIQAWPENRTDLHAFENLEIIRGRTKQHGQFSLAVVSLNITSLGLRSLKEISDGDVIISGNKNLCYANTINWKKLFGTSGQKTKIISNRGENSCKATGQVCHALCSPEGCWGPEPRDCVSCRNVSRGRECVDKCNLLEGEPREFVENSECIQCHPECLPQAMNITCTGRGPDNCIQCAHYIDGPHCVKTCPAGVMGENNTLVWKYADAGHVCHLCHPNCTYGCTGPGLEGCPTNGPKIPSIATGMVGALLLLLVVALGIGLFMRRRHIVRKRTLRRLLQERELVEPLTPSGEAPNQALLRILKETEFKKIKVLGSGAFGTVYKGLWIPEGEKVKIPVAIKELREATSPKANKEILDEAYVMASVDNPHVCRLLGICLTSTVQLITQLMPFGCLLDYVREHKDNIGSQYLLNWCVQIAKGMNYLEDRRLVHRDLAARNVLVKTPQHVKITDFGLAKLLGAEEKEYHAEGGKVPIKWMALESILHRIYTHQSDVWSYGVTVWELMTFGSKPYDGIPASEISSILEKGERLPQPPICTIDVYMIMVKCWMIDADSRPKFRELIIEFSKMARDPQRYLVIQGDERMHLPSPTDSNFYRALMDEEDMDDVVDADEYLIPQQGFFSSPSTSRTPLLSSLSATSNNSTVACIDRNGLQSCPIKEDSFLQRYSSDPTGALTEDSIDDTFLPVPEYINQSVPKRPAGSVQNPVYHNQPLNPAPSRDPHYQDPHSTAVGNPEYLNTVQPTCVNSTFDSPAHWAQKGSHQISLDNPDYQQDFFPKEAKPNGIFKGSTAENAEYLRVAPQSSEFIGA
T1 sequence (P00533 25-1210): as above

Row | Structure (SMILES) | IC50 [1, 8] | IC50 [4, 9] | IC50 [5] | IC50 [1, 11] | other results
1 | Nc1cc2ncnc(Nc3ccccc3C(F)(F)F)c2cn1 [Example 30, 7-Amino-4-(2-trifluoromethylanilino)pyrido[4,3-d]pyrimidine] |  |  |  |  | melting point: 126 to 130 °C (dec.); IC50 [1, 7]: 10000 nM
2 | C[C@@H](Nc1ncnc2ccncc12)c1ccccc1 [Example 39, 4-([R]-1-Phenylethylamino)pyrido[4,3-d]pyrimidine] | 590 nM |  |  |  | melting point: 138 to 138.5 °C
3 | CNc1cc2c(Nc3cccc(Br)c3)ncnc2cn1 [Example 60, 4-(3-Bromoanilino)-6-methylaminopyrido[3,4-d]pyrimidine] |  | < 10 nM | 13 nM | 0.008 nM | IC50 [2]: 2100 nM; IC50 [3]: 3000 nM; IC50 [1, 10]: 0.008 nM; IC50 [6]: 600 nM
4 | CN(C)c1cc2c(Nc3cccc(Br)c3)ncnc2cn1 [Example 61, 4-(3-Bromoanilino)-6-dimethylaminopyrido[3,4-d]pyrimidine] |  |  | 21 nM | 0.006 nM | IC50 [2]: 1000 nM; IC50 [3]: 12000 nM; IC50 ([4]; read-out: SKBR-3 IC50 nM, SK-BR-3 cells): 39 nM; IC50 [1, 10]: 0.006 nM; IC50 [6]: 900 nM
5 | Nc1cc2ncnc(Nc3cccc([N+](=O)[O-])c3)c2cn1 [Example 22, 7-Amino-4-(3-nitroanilino)pyrido[4,3-d]pyrimidine] | 39 nM | ~1500 nM | 252 nM | 39 nM | 
6 | COc1cc2c(Nc3cccc(Br)c3)ncnc2cn1 [Example 59, 4-(3-Bromoanilino)-6-methoxypyrido[3,4-d]pyrimidine] | 2.6 nM | < 10 nM | 12 nM | 2.6 nM | 
7 | c1ccc(CNc2nc[nH]c3nccc2-3)cc1 [Example 74, 4-Benzylaminopyrrolo[2,3-d]pyrimidine] |  | > 1000 nM |  | 55 nM | IC50 [1, 7]: 11500 nM
8 | CN(C)c1ccc2ncnc(Nc3cccc(Br)c3)c2n1 [Example 8, 4-(3-Bromoanilino)-6-dimethylaminopyrido[3,2-d]pyrimidine] | 9.6 nM | 71 nM | 32 nM | 9.6 nM | 
9 | Nc1ccc2ncnc(Nc3cccc(Br)c3)c2n1 [Example 6, 4-(3-Bromoanilino)-6-aminopyrido[3,2-d]pyrimidine] | 7.6 nM | 2660 nM | 53 nM | 7.6 nM | 
10 | Fc1ccc2ncnc(Nc3cccc(Br)c3)c2n1 [Example 4, 4-(3-Bromoanilino)-6-fluoropyrido[3,2-d]pyrimidine] | 225 nM | > 10000 nM | > 1000 nM | 225 nM | 
11 | C[C@@H](Nc1ncnc2cc(N)ncc12)c1ccccc1 [Example 41, 7-Amino-4-([R]-1-phenylethylamino)pyrido[4,3-d]pyrimidine] | 220 nM |  |  |  | melting point: 231.8 to 232.1 °C
12 | CNc1ccc2ncnc(Nc3cccc(Br)c3)c2n1 [Example 7, 4-(3-Bromoanilino)-6-methylaminopyrido[3,2-d]pyrimidine] | 3.1 nM | 100 nM | 20 nM | 3.1 nM | 
13 | NNc1ncc2c(NCc3ccccc3)ncnc2n1 [Example 70, 4-Benzylamino-7-hydrazinopyrimido[4,5-d]pyrimidine] | 473 nM | < 10 nM |  | 11 nM | 
14 | Nc1cc2ncnc(Nc3ccc(C(F)(F)F)cc3)c2cn1 [Example 32, 7-Amino-4-(4-trifluoromethylanilino)3pyrido[4,3-d]pyrimidine] |  |  |  |  | IC50 [1, 7]: 4700 nM
15 | CC(=O)Nc1cc2ncnc(NCc3ccccc3)c2cn1 [Example 54, 7-Acetylamino-4-benzylaminozpyrido[4,3-d]pyrimidine] | 100 nM |  |  |  | 
16 | Nc1cccc(Nc2ncnc3cc(N)ncc23)c1 [Example 17, 7-Amino-4-(3-aminoanilino)pyrido[4 3-d]pyrimidine] |  |  |  |  | IC50 [1, 7]: 1550 nM
17 | Brc1cccc(Nc2ncnc3cccnc23)c1 [Example 3, 4-(3-Bromoanilino)pyrido[3,2-d]pyrimidine] |  |  |  |  | IC50 [1, 7]: 1100 nM
18 | Brc1cccc(Nc2ncnc3[nH]cnc23)c1 [Example 75, N^6-(3-Bromophenyl)adenine] | 55 nM |  |  |  | 
19 | Brc1cccc(Nc2ncnc3cnccc23)c1 [Example 56, 4-(3-Bromoanilino)pyrido[3,4-d]pyrimidine] | 110 nM |  |  |  | 
20 | COc1ccc(Nc2ncnc3cc(N)ncc23)cc1 [Example 78, 7-Amino-4-(4-methoxyanilino)pyrido[4,3-d]pyrimidine] | 670 nM |  |  |  | 
21 | Clc1ccc2ncnc(Nc3cccc(Br)c3)c2n1 [Example 5, 4-(3-Bromoanilino)-6-chloropyrido[3,2-d]pyrimidine] |  |  |  |  | IC50 [1, 7]: 1900 nM
